Literature values in patent US20230082651A1, “STABLE AQUEOUS COMPOSITIONS OF PLANTS EXTRACTS AND METHODS OF MAKING THE SAME” (Nulixir Inc., priority 2021, published 2023).

Conditions: as a function of water content

| solubility in ethanol | Compound |
| --- | --- |
| decreases rapidly with water content | COc1ccc2cc3[n+](cc2c1OC)CCc1cc2c(cc1-3)OCO2 [berberine] |

Conditions: water and n-octanol; categorization at pH=7 unless stated otherwise

| Compound | log P |
| --- | --- |
| CC(C)=CCC[C@](C)(O[C@@H]1O[C@H](CO[C@@H]2O[C@H](CO)[C@@H](O)[C@H](O)[C@H]2O)[C@@H](O)[C@H](O)[C@H]1O)[C@H]1CC[C@]2(C)[C@@H]1[C@H](O)C[C@@H]1[C@@]3(C)CC[C@H](O[C@@H]4O[C@H](CO)[C@@H](O)[C@H](O)[C@H]4O[C@@H]4O[C@H](CO)[C@@H](O)[C@H](O)[C@H]4O)C(C)(C)[C@@H]3CC[C@]12C [ginsenoside rb1] | ~−1 |
| COc1cc2c(c(OC)c1OC)-c1c(cc(OC)c(OC)c1OC)C[C@H](C)[C@H](C)C2 [(−)-schisandrin A] | ~3.6 |
| CC(C)=C[C@@H]1CO[C@]23C[C@]4(CO2)[C@H](CC[C@@H]2[C@@]5(C)CC[C@H](O[C@@H]6OC[C@H](O)[C@H](O[C@@H]7O[C@H](CO)[C@@H](O)[C@H](O)[C@H]7O)[C@H]6O[C@@H]6O[C@@H](CO)[C@H](O)[C@H]6O)C(C)(C)[C@@H]5CC[C@]24C)[C@H]3[C@@]1(C)O [bacopasaponin C] | ~2 |
| N#C[C@@]1(O[C@@H]2O[C@H](CO)[C@@H](O)[C@H](O)[C@H]2O)C=C[C@@H](O)C1 [tetraphyllin B] | ~−2.5 |
| COc1ccc([C@@]23C=CC(=O)C[C@@H]2N(C)CC3)cc1OC [mesembrenone] | ~1.3 |
| bacopaside B | ~2.8 |
| COC1=CC(=O)OC(/C=C/c2ccc(OC)cc2)C1 (stereo not drawn) [5,6-dihydroyangonin] | ~2.5 |
| (R)-kawain | ~2.7 |
| COc1c2c(cc3c1-c1c(cc4c(c1OC)OCO4)C[C@H](C)[C@H](C)C3)OCO2 [(−)-schisandrin C] | ~3.5 |
| CC(C)=CCC[C@](C)(O[C@@H]1O[C@H](CO)[C@@H](O)[C@H](O)[C@H]1O)[C@H]1CC[C@]2(C)[C@@H]1[C@H](O)C[C@@H]1[C@@]3(C)CC[C@H](O)C(C)(C)[C@@H]3[C@@H](O[C@@H]3O[C@H](CO)[C@@H](O)[C@H](O)[C@H]3O)C[C@]12C [ginsenoside rgl] | ~0.8 |
| COc1ccc(C23C=CC(O)CC2N(C)CC3)cc1OC (stereo not drawn) [mesembrenol] | ~2.4 |
| COC1=CC(=O)O[C@@H](CCc2ccc3c(c2)OCO3)C1 [7,8-dihydromethysticin] | ~2.2 |
| COc1cc([C@H]2Oc3cc(O)c4c(=O)c(O)c(-c5ccc(O)cc5)oc4c3O[C@@H]2CO)ccc1O [rhodiolin] | ~2 |
| schisandroside C | ~1.6 |
| COc1ccc([C@@]23CCC(=O)C[C@@H]2N(C)CC3)cc1OC [mesembrine] | ~1.5 |
| COc1ccc(CCc2cc(OC)cc(=O)o2)cc1 [7,8-dihydroyangonin] | ~2.9 |
| COc1cc(/C=C\c2ccc(OC)c(O)c2)oc(=O)c1 [11-hydroxyyangonin] | ~2.2 |
| COc1cc2c(c(OC)c1OC)-c1c(cc(OC)c(OC)c1OC)C[C@](C)(O)[C@@H](C)C2 [(+)-schisandrin] | ~5 |
| CC1=C(CO)C(=O)O[C@@H]([C@@H](C)[C@H]2CC[C@H]3[C@@H]4C[C@H](Cl)[C@]5(O)[C@@H](O)C=CC(=O)[C@]5(C)[C@H]4CC[C@]23C)C1 [6a-chloro-5b-hydroxywithaferin A] | ~3.2 |
| CC(C)=C[C@H]1C[C@](C)(O)[C@@H]2[C@H]3CC[C@@H]4[C@@]5(C)CC[C@H](O[C@@H]6OC[C@H](O)[C@H](O[C@@H]7O[C@H](CO)[C@@H](O)[C@H](O)[C@H]7O)[C@H]6O[C@@H]6O[C@@H](CO)[C@H](O)[C@H]6O)C(C)(C)[C@@H]5CC[C@@]4(C)[C@@]34CO[C@@]2(C4)O1 [bacopaside X] | ~2.2 |
| hericerin | ~6.4 |
| COc1nc2c(c(=O)n1C)n(C)c(=O)n2C [methylliberine] | ~−0.083 |
| CC(=O)OC1C=CC(=O)N(C(=O)CCc2ccccc2)C1 (stereo not drawn) [pipermethystine] | ~1.8 |
| CC(C)=C[C@H]1C[C@](C)(O)[C@H]2[C@H]3CC[C@@H]4[C@@]5(C)CC[C@H](O[C@@H]6O[C@H](CO)[C@@H](O)[C@H](O[C@@H]7O[C@H](CO)[C@@H](O)[C@H](O)[C@H]7O)[C@H]6O[C@@H]6O[C@@H](CO)[C@H](O)[C@H]6O)C(C)(C)[C@@H]5CC[C@@]4(C)[C@@]34CO[C@@]2(C4)O1 [bacoside A3] | ~2.1 |
| tortuosomine | ~3 |
| herinacine A | ~2.5 |
